Test results from PMC3489664, “Sigma-1 Receptor Agonists Directly Inhibit NaV1.2/1.4 Channels” (PLoS ONE, 2012).

Columns and labels:
Format in all cases: cell-based
NaV1.4 [1] = target: T1, NaV1.4 (Rattus norvegicus, UniProt P15390, Y1586A); assay: whole-cell patch clamp in transfected HEK293T cells, […]; details: HEK-293T
T1 construct: gene Scn4a; rat NaV1.4 (NM013178)

NaV1.2 [2] = target: T2, NaV1.2 (Rattus norvegicus, UniProt P04775, Y1771A); assay: as above; details: HEK-293T
T2 construct: gene Scn2a; rat brain type IIA Na+ channel clone
T2 sequence (P04775 whole entry Y1771A): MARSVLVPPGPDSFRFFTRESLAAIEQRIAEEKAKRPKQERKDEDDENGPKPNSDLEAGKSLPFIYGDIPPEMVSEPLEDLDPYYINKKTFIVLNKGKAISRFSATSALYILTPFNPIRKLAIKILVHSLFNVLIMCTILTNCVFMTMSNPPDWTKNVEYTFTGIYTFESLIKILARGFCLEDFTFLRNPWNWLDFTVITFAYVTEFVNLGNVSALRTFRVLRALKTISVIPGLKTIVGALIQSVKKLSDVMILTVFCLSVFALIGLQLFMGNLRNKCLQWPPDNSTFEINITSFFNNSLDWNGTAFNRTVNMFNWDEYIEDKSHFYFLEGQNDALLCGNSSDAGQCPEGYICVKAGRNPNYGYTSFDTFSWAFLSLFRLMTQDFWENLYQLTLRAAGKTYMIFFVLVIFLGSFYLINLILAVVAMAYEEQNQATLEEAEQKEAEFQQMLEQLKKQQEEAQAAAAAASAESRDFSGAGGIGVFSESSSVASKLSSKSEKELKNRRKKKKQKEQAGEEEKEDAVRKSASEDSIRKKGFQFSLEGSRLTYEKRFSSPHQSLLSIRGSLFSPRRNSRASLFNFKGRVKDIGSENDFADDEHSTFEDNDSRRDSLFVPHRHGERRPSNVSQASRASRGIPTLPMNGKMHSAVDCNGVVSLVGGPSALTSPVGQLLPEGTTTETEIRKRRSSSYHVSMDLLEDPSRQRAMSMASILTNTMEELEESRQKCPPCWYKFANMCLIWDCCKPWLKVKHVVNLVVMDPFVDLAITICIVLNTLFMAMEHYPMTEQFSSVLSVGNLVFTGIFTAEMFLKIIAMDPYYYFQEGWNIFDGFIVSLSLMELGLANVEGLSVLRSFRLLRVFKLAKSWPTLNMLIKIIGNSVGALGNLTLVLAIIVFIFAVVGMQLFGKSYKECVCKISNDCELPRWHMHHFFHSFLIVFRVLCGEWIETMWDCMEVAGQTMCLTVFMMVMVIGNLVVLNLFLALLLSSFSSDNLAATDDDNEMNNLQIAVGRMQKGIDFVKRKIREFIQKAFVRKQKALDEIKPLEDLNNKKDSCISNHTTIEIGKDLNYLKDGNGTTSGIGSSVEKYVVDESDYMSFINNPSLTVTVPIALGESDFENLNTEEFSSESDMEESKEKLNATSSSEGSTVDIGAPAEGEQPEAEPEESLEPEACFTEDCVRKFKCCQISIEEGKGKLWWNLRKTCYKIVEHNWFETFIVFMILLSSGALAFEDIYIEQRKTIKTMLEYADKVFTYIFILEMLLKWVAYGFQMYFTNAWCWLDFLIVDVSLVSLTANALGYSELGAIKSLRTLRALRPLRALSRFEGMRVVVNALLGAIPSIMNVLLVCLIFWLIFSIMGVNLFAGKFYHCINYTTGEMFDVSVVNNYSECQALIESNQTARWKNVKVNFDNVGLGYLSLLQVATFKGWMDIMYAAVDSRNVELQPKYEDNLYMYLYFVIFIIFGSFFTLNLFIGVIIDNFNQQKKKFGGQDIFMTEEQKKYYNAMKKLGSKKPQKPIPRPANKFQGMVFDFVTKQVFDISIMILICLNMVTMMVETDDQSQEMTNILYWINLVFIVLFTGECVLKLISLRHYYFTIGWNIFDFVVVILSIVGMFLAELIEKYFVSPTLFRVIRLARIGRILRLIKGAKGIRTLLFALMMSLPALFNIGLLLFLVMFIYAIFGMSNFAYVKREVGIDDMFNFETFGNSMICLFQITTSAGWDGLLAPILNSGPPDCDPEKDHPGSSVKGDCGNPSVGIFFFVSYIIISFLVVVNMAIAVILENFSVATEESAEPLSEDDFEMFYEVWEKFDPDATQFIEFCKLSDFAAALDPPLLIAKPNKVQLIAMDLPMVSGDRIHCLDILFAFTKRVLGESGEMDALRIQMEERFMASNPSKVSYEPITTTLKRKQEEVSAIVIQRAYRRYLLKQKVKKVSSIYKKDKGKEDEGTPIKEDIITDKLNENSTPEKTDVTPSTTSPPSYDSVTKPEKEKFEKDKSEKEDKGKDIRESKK

NaV1.2 [3] = target: T3, NaV1.2 (Rattus norvegicus, UniProt P04775, F1764A); assay: as above; details: HEK-293T
T3 construct: gene Scn2a; rat brain type IIA Na+ channel clone
T3 sequence (P04775 whole entry F1764A): as the sequence (P04775 whole entry Y1771A) above, with F1764A, A1771Y counted along it

NaV1.4 [4] = target: T4, NaV1.4 (Rattus norvegicus, UniProt P15390, F1579A); assay: as above; details: HEK-293T
T4 construct: gene Scn4a; rat NaV1.4 (NM013178)
T4 sequence (P15390 whole entry F1579A): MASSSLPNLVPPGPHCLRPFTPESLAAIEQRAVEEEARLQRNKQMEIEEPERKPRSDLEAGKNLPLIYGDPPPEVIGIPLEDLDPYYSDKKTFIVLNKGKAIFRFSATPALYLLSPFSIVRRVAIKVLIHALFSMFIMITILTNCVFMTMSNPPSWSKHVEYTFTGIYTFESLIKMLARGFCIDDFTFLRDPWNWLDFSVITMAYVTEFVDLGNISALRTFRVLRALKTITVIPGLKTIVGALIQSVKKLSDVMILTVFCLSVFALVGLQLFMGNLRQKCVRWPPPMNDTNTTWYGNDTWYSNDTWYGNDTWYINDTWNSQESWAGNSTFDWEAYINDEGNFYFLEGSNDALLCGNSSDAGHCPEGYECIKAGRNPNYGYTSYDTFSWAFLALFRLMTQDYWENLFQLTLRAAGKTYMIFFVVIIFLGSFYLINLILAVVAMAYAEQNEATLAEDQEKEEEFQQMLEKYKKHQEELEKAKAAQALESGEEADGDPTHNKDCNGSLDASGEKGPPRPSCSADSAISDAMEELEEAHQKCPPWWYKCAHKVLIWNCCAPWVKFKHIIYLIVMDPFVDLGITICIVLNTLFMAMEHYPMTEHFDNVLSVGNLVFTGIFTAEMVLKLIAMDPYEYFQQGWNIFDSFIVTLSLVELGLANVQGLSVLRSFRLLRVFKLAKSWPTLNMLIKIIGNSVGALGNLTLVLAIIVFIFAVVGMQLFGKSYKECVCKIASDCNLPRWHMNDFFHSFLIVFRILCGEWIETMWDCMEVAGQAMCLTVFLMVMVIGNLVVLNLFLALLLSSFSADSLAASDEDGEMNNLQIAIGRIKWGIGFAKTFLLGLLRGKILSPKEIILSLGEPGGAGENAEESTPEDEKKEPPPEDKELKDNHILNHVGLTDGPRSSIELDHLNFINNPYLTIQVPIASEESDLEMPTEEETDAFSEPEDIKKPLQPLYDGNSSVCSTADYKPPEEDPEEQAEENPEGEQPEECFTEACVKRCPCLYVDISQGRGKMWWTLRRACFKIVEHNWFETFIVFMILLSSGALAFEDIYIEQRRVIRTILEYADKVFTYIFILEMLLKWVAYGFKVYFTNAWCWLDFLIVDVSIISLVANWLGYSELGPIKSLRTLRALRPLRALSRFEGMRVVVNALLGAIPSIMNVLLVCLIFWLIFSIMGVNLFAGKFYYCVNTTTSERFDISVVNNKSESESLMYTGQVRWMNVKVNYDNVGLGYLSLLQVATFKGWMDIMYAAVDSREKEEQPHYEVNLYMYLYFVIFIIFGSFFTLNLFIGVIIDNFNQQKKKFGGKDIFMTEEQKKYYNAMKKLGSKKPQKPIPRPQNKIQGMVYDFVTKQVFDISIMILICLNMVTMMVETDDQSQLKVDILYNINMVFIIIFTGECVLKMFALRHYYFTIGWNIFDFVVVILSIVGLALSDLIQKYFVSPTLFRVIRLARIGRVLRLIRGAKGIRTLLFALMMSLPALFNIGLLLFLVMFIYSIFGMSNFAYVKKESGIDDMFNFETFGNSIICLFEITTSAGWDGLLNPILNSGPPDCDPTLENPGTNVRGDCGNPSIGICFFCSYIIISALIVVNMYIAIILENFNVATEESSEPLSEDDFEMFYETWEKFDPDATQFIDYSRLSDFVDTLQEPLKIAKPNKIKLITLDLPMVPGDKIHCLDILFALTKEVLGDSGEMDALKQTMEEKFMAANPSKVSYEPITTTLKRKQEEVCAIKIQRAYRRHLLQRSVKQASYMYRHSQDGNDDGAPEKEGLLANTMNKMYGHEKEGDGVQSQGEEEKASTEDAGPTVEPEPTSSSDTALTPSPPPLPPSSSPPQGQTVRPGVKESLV

NaV1.4 [5] = target: T5, NaV1.4 (Rattus norvegicus, UniProt P15390); assay: whole-cell patch clamp in transfected HEK293T and COS-7 cells, […]
T5 construct: gene Scn4a; rat NaV1.4 (NM013178) in pEGFP-N1
T5 sequence (P15390 whole entry): as the sequence (P15390 whole entry F1579A) above, with A1579F counted along it

NaV1.2 [6] = target: T6, NaV1.2 (Rattus norvegicus, UniProt P04775); assay: whole-cell patch clamp in transfected HEK293T cells
T6 construct: gene Scn2a; rat brain type IIA Na+ channel clone
T6 sequence (P04775 whole entry): as the sequence (P04775 whole entry Y1771A) above, with A1771Y counted along it

NaV1.2 [7] = target: T6, NaV1.2; assay: whole-cell patch clamp in transfected HEK293T cells, […]; details: HEK-293T
NaV1.2 [8] = target: T6, NaV1.2; assay: whole-cell patch clamp in transfected HEK293T and COS-7 cells, […]

T1 sequence (P15390 whole entry Y1586A): as the sequence (P15390 whole entry F1579A) above, with A1579F, Y1586A counted along it

Q: With `C=CCN1CC[C@]2(C)c3cc(O)ccc3C[C@H]1[C@H]2C` [(+)-SKF 10047] as the molecule, how does the inhibition at 100 µM (NaV1.4 [1]) read?
A: Its inhibition at 100 µM is 49.3 ± 0.5%.

Q: What about the inhibition at 100 µM (NaV1.2 [2]) of the same molecule?
A: Its inhibition at 100 µM is 45.2 ± 1.3%.

Q: What about the inhibition at 100 µM (NaV1.2 [3]) of the same molecule?
A: Its inhibition at 100 µM is 25.9 ± 1.6%.

Q: And the inhibition at 100 µM (NaV1.4 [4])?
A: Its inhibition at 100 µM is 23 ± 1.7%.

Q: What about the inhibition at 100 µM (NaV1.4 [5]) of the same molecule?
A: The inhibition at 100 µM was 51.5 ± 2.5%.

Q: And the IC50 (NaV1.2 [6])?
A: Its IC50 is 140 µM.

Q: For `Cc1ccccc1NC(=N)Nc1ccccc1C` [1,3-di-o-tolyl-guanidine], which inhibition at 100 µM (NaV1.2 [7]) is on record?
A: The inhibition at 100 µM was 69 ± 2.5%.

Q: `COc1ccc2c(c1)[C@]13CCCC[C@@H]1[C@H](C2)N(C)CC3` [Dextromethorphan] was tested. Which inhibition at 100 µM (NaV1.2 [8]) did it give?
A: The inhibition at 100 µM was 65.8 ± 2%.
